The source made the active and inactive calls.
How the values were obtained:
[1] = target: T1, RNA-binding protein pos-1 (Caenorhabditis elegans, UniProt G5EF15); assay: inhibitors of POS-1/mex-3 RNA binding, dose response, biochemical, fluorescence polarization (AID 1964);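 further: purified POS-1 fused to maltose binding protein made in E. coli; potency of compounds blocking POS-1 binding to fluorescent RNA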
T1 sequence (G5EF15 whole entry): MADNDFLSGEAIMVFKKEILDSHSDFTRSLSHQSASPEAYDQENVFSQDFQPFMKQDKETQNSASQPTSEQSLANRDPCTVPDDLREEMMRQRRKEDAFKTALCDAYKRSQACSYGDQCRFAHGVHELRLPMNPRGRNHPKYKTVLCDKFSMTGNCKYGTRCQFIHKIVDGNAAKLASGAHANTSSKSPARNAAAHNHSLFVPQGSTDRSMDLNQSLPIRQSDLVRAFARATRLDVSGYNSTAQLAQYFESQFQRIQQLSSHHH

[2] = target: T2, Intestinal-type alkaline phosphatase (Mus musculus, UniProt P24822); assay: mouse intestinal alkaline phosphatase activators, dose response, biochemical, luminescence, uHTS hits (AID 488783); type: functional
T2 sequence (P24822 whole entry): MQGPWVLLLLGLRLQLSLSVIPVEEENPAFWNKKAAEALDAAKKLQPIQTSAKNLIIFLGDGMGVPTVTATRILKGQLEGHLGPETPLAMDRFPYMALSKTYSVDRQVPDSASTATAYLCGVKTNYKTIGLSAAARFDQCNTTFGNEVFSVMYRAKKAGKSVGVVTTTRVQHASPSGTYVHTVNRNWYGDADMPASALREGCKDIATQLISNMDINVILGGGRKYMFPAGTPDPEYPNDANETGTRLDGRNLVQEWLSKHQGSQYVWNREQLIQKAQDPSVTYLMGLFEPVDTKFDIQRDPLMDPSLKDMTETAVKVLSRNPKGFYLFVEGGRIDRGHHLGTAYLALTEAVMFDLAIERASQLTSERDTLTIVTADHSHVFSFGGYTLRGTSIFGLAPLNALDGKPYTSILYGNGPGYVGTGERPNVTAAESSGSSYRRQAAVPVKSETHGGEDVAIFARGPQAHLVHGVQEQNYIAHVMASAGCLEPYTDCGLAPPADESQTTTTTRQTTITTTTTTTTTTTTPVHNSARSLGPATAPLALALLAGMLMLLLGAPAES

[3] = target: T3, Zinc finger protein mex-5 (Caenorhabditis elegans, UniProt Q9XUB2); assay: MEX-5/TCR-2 RNA interaction inhibitors, dose response, biochemical, C. elegans, fluorescence polarization (AID 1960)
T3 sequence (Q9XUB2 whole entry): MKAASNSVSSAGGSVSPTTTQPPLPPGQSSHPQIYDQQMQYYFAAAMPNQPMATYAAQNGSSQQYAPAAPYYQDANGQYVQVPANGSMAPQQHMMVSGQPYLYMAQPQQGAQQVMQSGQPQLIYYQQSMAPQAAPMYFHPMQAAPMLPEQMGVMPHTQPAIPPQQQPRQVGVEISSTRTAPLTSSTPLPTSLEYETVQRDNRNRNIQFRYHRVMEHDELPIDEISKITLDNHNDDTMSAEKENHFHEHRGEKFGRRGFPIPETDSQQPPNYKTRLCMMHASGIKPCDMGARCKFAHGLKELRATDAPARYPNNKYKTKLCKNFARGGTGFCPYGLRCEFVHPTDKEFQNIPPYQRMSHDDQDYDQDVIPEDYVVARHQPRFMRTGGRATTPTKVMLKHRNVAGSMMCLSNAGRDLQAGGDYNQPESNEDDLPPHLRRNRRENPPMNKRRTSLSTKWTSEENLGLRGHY

[4] = target: T4, Alkaline phosphatase, tissue-nonspecific isozyme (Homo sapiens, UniProt P05186); assay: TNAP enzyme activators, dose response, selectivity assay for mouse IAP activator project, biochemical, TNAP isozyme, mouse IAP uHTS hits (AID 488880); type: functional
T4 sequence (P05186 whole entry): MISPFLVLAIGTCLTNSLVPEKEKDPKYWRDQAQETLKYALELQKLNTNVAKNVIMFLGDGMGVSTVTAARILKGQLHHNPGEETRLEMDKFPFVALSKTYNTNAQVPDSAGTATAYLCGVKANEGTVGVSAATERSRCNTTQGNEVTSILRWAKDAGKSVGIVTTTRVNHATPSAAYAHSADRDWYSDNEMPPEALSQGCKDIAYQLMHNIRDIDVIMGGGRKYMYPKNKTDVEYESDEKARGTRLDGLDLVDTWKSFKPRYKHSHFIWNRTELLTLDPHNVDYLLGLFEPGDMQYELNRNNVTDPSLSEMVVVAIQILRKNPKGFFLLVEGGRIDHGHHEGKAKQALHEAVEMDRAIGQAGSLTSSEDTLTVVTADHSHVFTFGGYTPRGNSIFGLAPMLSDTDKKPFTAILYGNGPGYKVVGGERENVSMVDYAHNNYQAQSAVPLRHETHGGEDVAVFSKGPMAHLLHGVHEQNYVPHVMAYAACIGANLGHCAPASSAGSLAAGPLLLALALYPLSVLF

[5] = target: Intestinal-type alkaline phosphatase (Homo sapiens, UniProt P09923); assay: activation of human intestinal alkaline phosphatase – biochemical, dose response (AID 488873); type: functional
Chain of Intestinal-type alkaline phosphatase (Homo sapiens, UniProt P09923) (P09923 whole entry): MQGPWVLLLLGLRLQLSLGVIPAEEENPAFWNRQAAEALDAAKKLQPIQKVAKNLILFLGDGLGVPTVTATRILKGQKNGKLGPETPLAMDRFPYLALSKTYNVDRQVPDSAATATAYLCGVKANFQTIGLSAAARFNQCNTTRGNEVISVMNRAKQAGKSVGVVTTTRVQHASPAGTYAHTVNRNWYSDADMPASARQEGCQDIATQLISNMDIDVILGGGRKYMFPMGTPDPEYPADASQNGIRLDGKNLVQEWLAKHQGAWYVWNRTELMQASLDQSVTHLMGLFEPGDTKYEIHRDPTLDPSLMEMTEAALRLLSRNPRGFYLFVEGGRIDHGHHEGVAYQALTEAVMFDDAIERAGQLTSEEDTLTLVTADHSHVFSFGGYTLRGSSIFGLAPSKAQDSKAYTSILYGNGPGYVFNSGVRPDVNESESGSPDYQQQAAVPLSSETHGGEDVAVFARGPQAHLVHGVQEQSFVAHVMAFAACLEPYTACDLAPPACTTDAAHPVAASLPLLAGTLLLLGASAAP

Leucine aminopeptidase = target: T5, Leucine aminopeptidase (Plasmodium falciparum 3D7, UniProt Q8IL11); assay: P. falciparum M17LAP inhibitors, primary screen, biochemical, fluorogenic H-Leu-NHMec substrate, 1536-well (AID 1619); type: functional
T5 sequence (Q8IL11 whole entry): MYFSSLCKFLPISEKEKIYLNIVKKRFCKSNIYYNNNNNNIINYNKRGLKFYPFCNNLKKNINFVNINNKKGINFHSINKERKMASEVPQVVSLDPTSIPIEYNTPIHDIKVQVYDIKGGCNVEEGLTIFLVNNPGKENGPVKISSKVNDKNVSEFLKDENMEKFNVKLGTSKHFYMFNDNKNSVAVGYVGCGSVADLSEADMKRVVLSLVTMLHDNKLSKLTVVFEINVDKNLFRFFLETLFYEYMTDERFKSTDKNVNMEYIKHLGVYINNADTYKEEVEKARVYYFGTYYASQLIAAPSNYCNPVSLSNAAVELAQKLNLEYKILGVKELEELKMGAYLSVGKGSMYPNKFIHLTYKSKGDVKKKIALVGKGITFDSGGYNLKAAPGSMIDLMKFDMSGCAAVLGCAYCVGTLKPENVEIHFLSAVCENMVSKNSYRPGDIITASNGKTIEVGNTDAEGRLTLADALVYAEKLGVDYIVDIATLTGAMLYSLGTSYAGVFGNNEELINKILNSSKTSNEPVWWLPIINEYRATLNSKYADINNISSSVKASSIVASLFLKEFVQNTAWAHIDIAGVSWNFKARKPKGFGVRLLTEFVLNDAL

[6] = target: T2, Intestinal-type alkaline phosphatase; assay: PubChem AID 488785; type: functional
[7] = target: T4, Alkaline phosphatase, tissue-nonspecific isozyme; assay: TNAP enzyme inhibition by screening hits, dose response, selectivity assay for mouse IAP inhibitor project, biochemical, human TNAP, uHTS hits (AID 488906); type: functional
Large T antigen = Large T antigen (Simian virus 40, UniProt P03070); type: functional, Betapolyomavirus macacae;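 further: Confirmatory-stage PubChem screen for compounds that inhibit SV40 T antigen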
Chain of Large T antigen (P03070 whole entry): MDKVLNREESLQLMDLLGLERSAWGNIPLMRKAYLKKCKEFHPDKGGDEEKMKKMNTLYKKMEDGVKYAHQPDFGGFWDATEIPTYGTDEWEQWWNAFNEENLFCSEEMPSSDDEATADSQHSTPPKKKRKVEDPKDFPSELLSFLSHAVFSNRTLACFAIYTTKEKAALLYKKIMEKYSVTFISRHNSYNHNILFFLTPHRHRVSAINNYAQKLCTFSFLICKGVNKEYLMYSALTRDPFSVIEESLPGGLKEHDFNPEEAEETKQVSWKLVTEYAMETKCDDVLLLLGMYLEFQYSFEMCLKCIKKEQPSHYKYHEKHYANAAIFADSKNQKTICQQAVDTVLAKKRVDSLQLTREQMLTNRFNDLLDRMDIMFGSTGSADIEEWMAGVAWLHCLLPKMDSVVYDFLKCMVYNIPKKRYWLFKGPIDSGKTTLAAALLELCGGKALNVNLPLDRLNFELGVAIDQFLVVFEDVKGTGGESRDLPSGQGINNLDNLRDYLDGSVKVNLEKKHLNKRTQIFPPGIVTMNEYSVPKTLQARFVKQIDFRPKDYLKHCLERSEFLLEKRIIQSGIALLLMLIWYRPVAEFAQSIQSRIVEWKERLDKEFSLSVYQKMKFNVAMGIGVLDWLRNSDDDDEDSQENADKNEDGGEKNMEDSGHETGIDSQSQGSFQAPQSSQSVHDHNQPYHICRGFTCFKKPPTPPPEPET

Prothrombin = Prothrombin (Bos taurus, UniProt P00735); assay: thrombin inhibition, dose response, biochemical, fluorescence polarization, uHTS hits (AID 602369); type: functional
[8] = target: 1-phosphatidylinositol 4,5-bisphosphate phosphodiesterase gamma-1 (Homo sapiens, UniProt P19174); assay: Counterscreen for inhibitors of phospholipase C isozymes (PLC-B3): Fluorescence-based biochemical high throughput dose response assay to identify inhibitors of phospholipase C isozymes (PLC-gamma1).
[9] = target: 1-phosphatidylinositol 4,5-bisphosphate phosphodiesterase beta-3 (Homo sapiens, UniProt Q01970); assay: Fluorescence-based biochemical high throughput dose response assay to identify inhibitors of phospholipase C isozymes (PLC-B3).
Phospholipase A2 = Phospholipase A2 (Homo sapiens, UniProt P04054); type: functional;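 further: confirmatory dose-response counterscreen on phospholipase A2, testing hits that came from an ultra-high-throughput screen for ATG4B inhibitors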
Chain of Phospholipase A2 (P04054 whole entry): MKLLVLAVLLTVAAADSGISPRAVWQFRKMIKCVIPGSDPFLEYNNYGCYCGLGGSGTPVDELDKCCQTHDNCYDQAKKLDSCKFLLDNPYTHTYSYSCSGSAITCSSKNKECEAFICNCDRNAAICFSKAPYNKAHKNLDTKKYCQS

Cysteine protease ATG4B = target: T6, Cysteine protease ATG4B (Homo sapiens, UniProt Q9Y4P1); type: functional;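 further: Fluorescence-based dose-response confirmation assay measuring inhibition of ATG4B activity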
T6 sequence (Q9Y4P1 whole entry): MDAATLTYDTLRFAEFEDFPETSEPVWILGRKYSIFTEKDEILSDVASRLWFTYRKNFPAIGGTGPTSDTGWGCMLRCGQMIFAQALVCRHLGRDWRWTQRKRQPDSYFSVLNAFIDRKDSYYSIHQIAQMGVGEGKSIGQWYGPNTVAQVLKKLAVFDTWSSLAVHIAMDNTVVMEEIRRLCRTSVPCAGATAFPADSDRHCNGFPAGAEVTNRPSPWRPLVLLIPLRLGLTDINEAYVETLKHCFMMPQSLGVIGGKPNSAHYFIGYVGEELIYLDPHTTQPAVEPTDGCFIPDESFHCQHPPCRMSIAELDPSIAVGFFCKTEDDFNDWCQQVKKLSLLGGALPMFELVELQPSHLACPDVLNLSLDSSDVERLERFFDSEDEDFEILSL

ORF 73 = target: T7, ORF 73 (Human herpesvirus 8, UniProt O40947); assay: inhibitors of C-LANA binding to LBS DNA, dose response, biochemical, fluorescence polarization, cherry-picked samples (AID 504725); parameters: species or system Human gammaherpesvirus 8;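 further: fluorescence polarization of a labeled DNA duplex reporting LANA DNA binding; potency is for inhibitors that block LANA binding to the DNA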
T7 sequence (O40947 whole entry): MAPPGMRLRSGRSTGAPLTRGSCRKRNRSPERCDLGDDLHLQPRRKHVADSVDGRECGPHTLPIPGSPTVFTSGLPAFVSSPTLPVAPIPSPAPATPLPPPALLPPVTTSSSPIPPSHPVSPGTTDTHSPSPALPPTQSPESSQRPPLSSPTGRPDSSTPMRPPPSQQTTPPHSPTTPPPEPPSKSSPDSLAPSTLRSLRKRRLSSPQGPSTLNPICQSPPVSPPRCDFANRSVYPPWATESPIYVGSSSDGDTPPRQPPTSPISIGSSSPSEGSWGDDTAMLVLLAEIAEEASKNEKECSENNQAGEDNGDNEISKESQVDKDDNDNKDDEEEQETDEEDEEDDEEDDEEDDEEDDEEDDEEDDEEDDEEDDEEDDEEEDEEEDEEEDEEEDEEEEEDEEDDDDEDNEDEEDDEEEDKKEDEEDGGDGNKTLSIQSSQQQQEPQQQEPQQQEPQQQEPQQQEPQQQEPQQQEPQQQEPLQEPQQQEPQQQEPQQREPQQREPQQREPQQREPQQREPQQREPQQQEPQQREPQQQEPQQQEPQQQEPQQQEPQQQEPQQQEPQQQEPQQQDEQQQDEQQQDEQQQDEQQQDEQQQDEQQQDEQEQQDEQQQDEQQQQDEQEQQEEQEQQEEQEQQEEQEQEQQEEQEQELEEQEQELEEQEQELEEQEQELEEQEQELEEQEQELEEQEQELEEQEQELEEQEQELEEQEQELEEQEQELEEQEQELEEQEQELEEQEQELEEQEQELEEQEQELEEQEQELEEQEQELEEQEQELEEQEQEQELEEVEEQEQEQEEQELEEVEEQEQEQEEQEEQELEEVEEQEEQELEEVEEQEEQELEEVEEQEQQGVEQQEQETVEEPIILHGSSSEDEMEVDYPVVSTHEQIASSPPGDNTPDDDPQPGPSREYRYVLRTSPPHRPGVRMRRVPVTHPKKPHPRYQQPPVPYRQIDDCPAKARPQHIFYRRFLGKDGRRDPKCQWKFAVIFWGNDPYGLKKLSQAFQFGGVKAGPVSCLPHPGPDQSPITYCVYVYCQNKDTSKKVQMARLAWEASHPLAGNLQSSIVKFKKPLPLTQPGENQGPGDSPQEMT

[10] = target: 72 kDa type IV collagenase (Homo sapiens, UniProt P08253); assay: Dose Response validation of uHTS RPN11 inhibitor hits using a MMP-2 Fluorescence assay.; type: functional
Chain of 72 kDa type IV collagenase (P08253 whole entry): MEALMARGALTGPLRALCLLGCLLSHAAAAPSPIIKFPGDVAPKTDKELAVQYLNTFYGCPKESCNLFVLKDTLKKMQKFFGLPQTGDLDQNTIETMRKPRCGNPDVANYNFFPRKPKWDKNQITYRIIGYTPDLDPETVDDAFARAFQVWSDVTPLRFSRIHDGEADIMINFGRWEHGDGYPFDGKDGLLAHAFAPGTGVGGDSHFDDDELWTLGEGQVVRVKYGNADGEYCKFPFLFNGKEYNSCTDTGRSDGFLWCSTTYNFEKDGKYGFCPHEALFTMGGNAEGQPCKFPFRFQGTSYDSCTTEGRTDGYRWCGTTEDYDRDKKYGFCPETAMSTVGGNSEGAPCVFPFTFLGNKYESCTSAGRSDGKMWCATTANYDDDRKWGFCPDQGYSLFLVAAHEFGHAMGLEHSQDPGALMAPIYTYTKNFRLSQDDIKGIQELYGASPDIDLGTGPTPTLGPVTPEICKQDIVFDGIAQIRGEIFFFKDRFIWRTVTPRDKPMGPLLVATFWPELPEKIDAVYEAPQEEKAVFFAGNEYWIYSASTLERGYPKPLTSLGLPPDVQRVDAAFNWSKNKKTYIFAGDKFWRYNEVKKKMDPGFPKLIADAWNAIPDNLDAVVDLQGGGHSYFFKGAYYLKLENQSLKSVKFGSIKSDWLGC

[11] = target: 26S proteasome non-ATPase regulatory subunit 14 (Homo sapiens, UniProt O00487); assay: inhibition of proteasome subunit RPN11 – biochemical, fluorescence polarization, uHTS hits, confirmation (AID 602368); type: functional
Chain of 26S proteasome non-ATPase regulatory subunit 14 (O00487 whole entry): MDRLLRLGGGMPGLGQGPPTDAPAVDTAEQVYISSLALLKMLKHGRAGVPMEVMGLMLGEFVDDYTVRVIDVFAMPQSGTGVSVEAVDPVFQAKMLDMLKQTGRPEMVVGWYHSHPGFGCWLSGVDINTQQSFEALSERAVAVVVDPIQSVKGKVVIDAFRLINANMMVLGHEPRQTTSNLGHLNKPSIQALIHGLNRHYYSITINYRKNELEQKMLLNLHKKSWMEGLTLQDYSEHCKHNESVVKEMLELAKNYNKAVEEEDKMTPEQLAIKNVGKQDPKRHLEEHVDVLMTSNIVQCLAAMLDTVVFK

[12] = target: T8, Dual specificity protein phosphatase 6 (Rattus norvegicus, UniProt Q64346); assay: MKP-3 phosphatase inhibitors, primary screen, biochemical, rat enzyme, in vitro (AID 425)
T8 sequence (Q64346 whole entry): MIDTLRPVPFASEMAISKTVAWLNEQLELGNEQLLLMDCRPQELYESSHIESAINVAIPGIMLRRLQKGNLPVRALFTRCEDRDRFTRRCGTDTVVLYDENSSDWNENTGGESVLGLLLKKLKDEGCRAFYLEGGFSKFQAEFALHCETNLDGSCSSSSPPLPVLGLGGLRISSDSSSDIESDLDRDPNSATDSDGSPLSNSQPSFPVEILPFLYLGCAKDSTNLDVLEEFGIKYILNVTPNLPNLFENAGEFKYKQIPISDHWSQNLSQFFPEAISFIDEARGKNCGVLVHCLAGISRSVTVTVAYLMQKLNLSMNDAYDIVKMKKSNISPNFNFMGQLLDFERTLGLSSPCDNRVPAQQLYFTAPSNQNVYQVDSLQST

[13] = target: DNA (cytosine-5)-methyltransferase 1 (Homo sapiens, UniProt P26358); assay: DNMT1 methyltransferase inhibitors, confirmation, biochemical, fluorescent molecular beacon (AID 602386); type: functional
Chain of DNA (cytosine-5)-methyltransferase 1 (P26358 whole entry): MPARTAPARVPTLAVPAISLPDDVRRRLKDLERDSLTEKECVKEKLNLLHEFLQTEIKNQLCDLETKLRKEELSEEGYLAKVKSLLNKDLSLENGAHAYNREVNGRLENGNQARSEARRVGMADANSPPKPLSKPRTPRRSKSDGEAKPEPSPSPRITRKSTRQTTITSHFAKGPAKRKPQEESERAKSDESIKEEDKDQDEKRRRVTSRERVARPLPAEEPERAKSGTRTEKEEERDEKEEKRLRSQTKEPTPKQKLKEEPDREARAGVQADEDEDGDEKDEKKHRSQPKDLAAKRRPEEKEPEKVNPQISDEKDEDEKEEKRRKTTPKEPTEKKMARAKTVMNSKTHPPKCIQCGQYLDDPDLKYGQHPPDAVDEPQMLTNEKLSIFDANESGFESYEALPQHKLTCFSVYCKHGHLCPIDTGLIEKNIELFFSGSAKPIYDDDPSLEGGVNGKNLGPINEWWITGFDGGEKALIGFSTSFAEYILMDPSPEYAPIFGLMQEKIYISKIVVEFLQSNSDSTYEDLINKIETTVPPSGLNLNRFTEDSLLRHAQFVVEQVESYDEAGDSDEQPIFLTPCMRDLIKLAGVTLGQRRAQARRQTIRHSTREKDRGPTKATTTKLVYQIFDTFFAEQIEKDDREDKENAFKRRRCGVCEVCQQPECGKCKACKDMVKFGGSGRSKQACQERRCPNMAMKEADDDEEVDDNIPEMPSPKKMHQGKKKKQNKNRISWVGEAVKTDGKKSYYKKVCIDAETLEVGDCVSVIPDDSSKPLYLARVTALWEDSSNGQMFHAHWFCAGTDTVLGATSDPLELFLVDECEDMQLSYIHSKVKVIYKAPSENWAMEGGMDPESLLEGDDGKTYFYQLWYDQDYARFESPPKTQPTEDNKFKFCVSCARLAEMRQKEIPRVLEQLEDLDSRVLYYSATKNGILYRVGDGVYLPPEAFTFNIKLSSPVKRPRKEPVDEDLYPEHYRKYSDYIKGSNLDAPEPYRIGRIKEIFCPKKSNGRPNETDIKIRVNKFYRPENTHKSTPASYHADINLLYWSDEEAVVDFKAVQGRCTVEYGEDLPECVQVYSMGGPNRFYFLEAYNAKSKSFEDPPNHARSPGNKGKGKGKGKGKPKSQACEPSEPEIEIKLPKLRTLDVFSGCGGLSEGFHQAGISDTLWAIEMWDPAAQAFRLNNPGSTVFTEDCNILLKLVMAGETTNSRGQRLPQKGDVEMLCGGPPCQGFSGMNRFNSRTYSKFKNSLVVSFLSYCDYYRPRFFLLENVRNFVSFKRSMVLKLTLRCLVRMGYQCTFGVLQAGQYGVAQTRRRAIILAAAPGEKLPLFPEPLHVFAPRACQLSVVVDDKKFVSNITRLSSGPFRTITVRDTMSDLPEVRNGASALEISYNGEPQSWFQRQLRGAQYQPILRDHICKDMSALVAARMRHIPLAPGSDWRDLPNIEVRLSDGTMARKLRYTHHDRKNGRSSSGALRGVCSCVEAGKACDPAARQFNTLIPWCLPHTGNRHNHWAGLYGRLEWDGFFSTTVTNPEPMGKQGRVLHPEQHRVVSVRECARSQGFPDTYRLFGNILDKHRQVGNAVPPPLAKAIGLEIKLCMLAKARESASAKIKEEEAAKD

[14] = target: T9, Dual specificity protein phosphatase 3 (Homo sapiens, UniProt P51452); assay: VHR1 phosphatase inhibitors, primary screen, biochemical, absorbance, uHTS (AID 1654)
T9 sequence (P51452 whole entry): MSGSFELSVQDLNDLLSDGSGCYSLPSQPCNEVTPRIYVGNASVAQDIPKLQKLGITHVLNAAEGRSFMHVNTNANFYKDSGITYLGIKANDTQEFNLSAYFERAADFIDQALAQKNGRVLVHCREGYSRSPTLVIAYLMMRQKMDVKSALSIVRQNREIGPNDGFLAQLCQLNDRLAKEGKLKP

[15] = target: T9, Dual specificity protein phosphatase 3; assay: VHR1 phosphatase inhibitors, biochemical (AID 1878)
[16] = target: Induced myeloid leukemia cell differentiation protein Mcl-1 (Homo sapiens, UniProt Q07820); type: functional

COc1ccc(S(=O)(=O)Nc2ccc(O)c(Sc3nnc[nH]3)c2)cc1
active: EC50 [1] 10.4 µM | EC50 [2] 63.4 µM | EC50 [3] 8.48 µM | EC50 [4] 62.8 µM | EC50 [5] 79.6 µM | IC50 (Leucine aminopeptidase) 25 µM

O=C(CN1C(=O)/C(=C/c2ccco2)SC1=S)Nc1ccc(C(=O)O)c(O)c1
active: IC50 [6] 9.42 µM | IC50 (Large T antigen) 76.9 µM | IC50 (Prothrombin) 45.8 µM | IC50 (Phospholipase A2) 16.8 µM | IC50 (Cysteine protease ATG4B) 6.89 µM | AC50 (ORF 73) 76.1 µM | IC50 [10] 2.32 µM | IC50 [11] 19.4 µM
inactive: IC50 [7] > 100 µM | EC50 [5] > 100 µM | IC50 [8] > 122 µM | IC50 [9] > 122 µM

Cc1ccc(NC(=O)CN2C(=O)S/C(=C\c3cccn3-c3cccc(C(=O)O)c3)C2=O)c(C)c1
active: IC50 [12] 7.9 µM | IC50 [13] 9.17 µM | IC50 [14] 3.25 µM | IC50 [15] 1.89 µM | IC50 [16] > 54 µM
> 300 µM (not active): EC50 [1] | EC50 [3]

COc1ccc(/N=C2\SC(C(N)=O)CC(=O)N2CCc2ccc(OC)c(OC)c2)cc1 (stereo not drawn)
active: EC50 [2] 13.3 µM | EC50 [4] 48.9 µM | EC50 [5] 59.6 µM

— ChEMBL document CHEMBL1201862, “PubChem BioAssay data set” (2004)
